Laboratory results published in ChEMBL document CHEMBL5252595, “A Quarter Century of Marine Biodiscovery in Algoa Bay, South Africa” (J Nat Prod, 2023).
Each block holds one compound with its values, some of them ahead of it.

Tests used:
[1] = test system: HCT-116; experiment: Anticancer activity against human HCT-116 cells assessed as cell growth inhibition; format: functional; settings: read-out: LC50 (the source's name)
[2] = Anticancer activity against human U-87 MG cells assessed as cell growth inhibition; format: functional, U-87MG ATCC; settings: read-out: LC50 (the source's name)
[3] = Anticancer activity against human WHCO1 cells assessed as cell growth incubated for 24 hrs by MTT assay; format: functional, cell-based; settings: WHCO1, 24 h
[4] = test system: OVCAR-3; experiment: Anticancer activity against human OVCAR-3 cells assessed as cell growth inhibition; format: functional, cell-based
[5] = test system: SNB-19; experiment: Anticancer activity against human SNB-19 cells assessed as cell growth inhibition; format: functional, cell-based
[6] = test system: A549; experiment: Anticancer activity against human A549 cells assessed as cell growth inhibition; format: functional, cell-based
[7] = test system: LOX IMVI; experiment: Anticancer activity against human LOX IMVI cells assessed as cell growth inhibition; format: functional, cell-based
[8] = test system: MDA-MB-231; experiment: Anticancer activity against human MDA-MB-231 cells assessed as cell growth incubated for 24 hrs by MTT assay; format: functional, cell-based; settings: MDA-MB-231, 24 h
[9] = test system: NCI-H460; experiment: Anticancer activity against human NCI-H460 cells assessed as cell growth incubated for 48 hrs by MTT assay; format: functional, cell-based; settings: NCI-H460, 48 h

SMILES: CC.CCCCCCCC(=O)OC[C@@H]1C[C@H](O)[C@@H]2C[C@H](C)[C@H](C/C=C\C=C\[C@H](C)C[C@@H]3C[C@H](O[C@@H]4O[C@@H](C)[C@H](O)[C@@H](O)[C@H]4OC)C[C@H](C/C=C/C(=O)O1)O3)O2
CC50 [1]: 0.054 µM
CC50 [2]: 0.061 µM

SMILES: C/C(=C\Cc1cc(O)c(C)cc1O)CC/C=C(\C)CC(=O)CC(C)C
IC50 [3]: 9.5 µM

IC50 [4]: 30 µM
IC50 [6]: 30 µM
SMILES: CCCCCCCC/C=C/C=C/[C@@H](C)N
IC50 [5]: 30 µM
IC50 [7]: 30 µM

IC50 [8]: 118 µM
SMILES: Brc1ccc2c(Br)c[nH]c2c1

SMILES: CCCC(=O)O[C@@H]1C[C@H]2C[C@@H](O[C@@H]3O[C@@H](C)[C@@H](O)[C@@H](O)[C@H]3OC)C[C@@H](C[C@@H](C)/C=C/C=C\C[C@@H]3O[C@@H](C[C@@H]3C)[C@@H](O)C[C@H]3C[C@@]1(O)C(=O)O3)O2
IC50 [9]: 0.044 µM

SMILES: CO[C@H]1[C@H](O[C@@H]2C[C@@H]3C/C=C/C(=O)O[C@H](CO)C[C@H](O)[C@@H]4C[C@H](C)[C@H](C/C=C\C=C\[C@H](C)C[C@H](C2)O3)O4)O[C@@H](C)[C@H](O)[C@H]1O
IC50 [9]: 0.012 µM
CC50 [2]: 0.00038 µM

IC50 [8]: 73 µM
SMILES: Clc1c[nH]c2cc(Br)ccc12

IC50 [8]: 74 µM
SMILES: O=C1Cc2ccc(Br)cc2N1

SMILES: O=C1C[C@H]2S[C@H]3C[C@]2(C=C1Br)C1=C(N3)C(=O)c2[nH]cc3c2C1=NCC3 [DISCORHABDINE A]
IC50 [3]: 0.017 µM
